Values of other authors as cited in patent publication US6974665B2, “In situ screening to optimize variables in organic reactions” (University of Nebraska, priority 2001, dated 2005).
pKi: −log10 of the molar value.

Legend:
[1] = molecular target: T1, cystathionine γ-synthase (Nicotiana tabacum, UniProt Q9ZPL5); settings: tight-binding reversible inhibitor
T1 sequence (Q9ZPL5 79-540): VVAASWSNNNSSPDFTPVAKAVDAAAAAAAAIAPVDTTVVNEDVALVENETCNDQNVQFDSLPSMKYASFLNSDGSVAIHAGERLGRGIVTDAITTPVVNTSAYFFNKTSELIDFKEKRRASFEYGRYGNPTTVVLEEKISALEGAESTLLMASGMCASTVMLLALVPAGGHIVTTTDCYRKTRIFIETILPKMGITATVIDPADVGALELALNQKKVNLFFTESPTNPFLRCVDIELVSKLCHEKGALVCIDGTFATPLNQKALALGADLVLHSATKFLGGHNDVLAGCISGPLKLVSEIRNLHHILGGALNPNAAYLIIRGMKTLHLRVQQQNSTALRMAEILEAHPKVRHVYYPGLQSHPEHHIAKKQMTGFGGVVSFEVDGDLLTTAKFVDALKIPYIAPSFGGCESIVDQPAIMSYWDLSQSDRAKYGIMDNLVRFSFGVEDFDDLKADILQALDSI

[2] = molecular target: T2, threonine synthase (Escherichia coli, UniProt P00934); settings: irreversible inhibitor
T2 sequence (P00934 1-428): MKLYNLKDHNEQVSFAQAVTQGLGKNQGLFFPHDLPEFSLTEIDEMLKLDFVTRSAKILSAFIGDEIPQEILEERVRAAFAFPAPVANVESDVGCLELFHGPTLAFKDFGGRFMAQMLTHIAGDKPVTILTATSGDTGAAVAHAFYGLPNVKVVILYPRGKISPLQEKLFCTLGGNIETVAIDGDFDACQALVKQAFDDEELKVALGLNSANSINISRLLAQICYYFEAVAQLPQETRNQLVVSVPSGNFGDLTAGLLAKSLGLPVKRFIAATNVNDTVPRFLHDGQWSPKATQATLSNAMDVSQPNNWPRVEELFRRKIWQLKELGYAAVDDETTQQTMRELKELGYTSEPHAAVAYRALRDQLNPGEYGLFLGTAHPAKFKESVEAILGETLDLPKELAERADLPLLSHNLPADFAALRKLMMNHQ

Q: With `NC(/C=C/CP(=O)(O)O)C(=O)O` (stereo not drawn) [APPA, (E)-2-Amino-5-phosphono-3-pentenoic Acid] as the molecule, how does the pKi [1] read?
A: 4.57

Q: And the pKi [2]?
A: 3.40

Q: What about the kinact [2] of the same molecule?
A: 0.25 min⁻¹
